Assay results from patent publication US11771662B2, “Analgesic formulation for control of pain in dogs” (Kansas State University Research Foundation, priority 2017, dated 2023).

What was measured:
[1] = system: dogs undergoing ovariohysterectomy; test: Sedation scores at each time point in ovariohysterectomy clinical trial (Example IV); conditions: 0.5 mg/kg SC q 4 h
[2] = system: dogs undergoing ovariohysterectomy; test: Postoperative pain: Glasgow Composite Pain Scale and need for rescue analgesic (Example IV); conditions: 0.5 mg/kg SC q 4 h; total 13
[3] = humans; cited from earlier work
[4] = system: dogs undergoing ovariohysterectomy; test: Adverse effects in ovariohysterectomy clinical trial (Example IV); conditions: injection group, 0.5 mg/kg SC q 4 h
[5] = Plasma methadone, naltrexone and naltrexone metabolites, multiple oral doses (Example III); assay type: in vivo, dog; conditions: oral methadone/fluconazole/naltrexone formulation, both groups; throughout dosing and at least 12 hours after the last dose
From the text: Twelve healthy Beagle dogs were divided into two groups of 6 each in a parallel study design. […] Group 1 simulated a patient dropped off the night before surgery, while Group 2 simulated a patient dropped off in the morning for same day early afternoon surgery. Rectal temperature was monitored as a marker of central opioid effects throughout the study and von Frey thresholds were obtained to assess the antinociceptive effects.

[6] = Plasma methadone concentrations by liquid chromatography/triple quadrupole mass spectrometry (Example I); conditions: dog, in vivo
[7] = 1 mg/kg, Mean plasma methadone concentration, methadone alone 1 mg/kg PO, 6 dogs
[8] = 1 mg/kg, Plasma methadone concentration, individual dogs, methadone alone 1 mg/kg PO, Dog 1-6
[9] = Mean plasma methadone concentration, methadone 1 mg/kg PO 24 h after starting fluconazole 2.5 mg/kg PO q 12 h

Structure (SMILES): CCC(=O)C(CC(C)N(C)C)(c1ccccc1)c1ccccc1 (racemic) [methadone]
- Sedation Score Moderate (number of dogs) ([1]; Day 0 5:00 PM): 0
- Sedation Score None (number of dogs) ([1]; Day 0 5:00 PM): 13
- Sedation Score Profound (number of dogs) ([1]; Day 0 5:00 PM): 0
- Sedation Score Slight (number of dogs) ([1]; Day 0 5:00 PM): 0
- Sedation Score Moderate (number of dogs) ([1]; Day 1 1:00 PM): 3
- Sedation Score None (number of dogs) ([1]; Day 1 1:00 PM): 1
- Sedation Score Profound (number of dogs) ([1]; Day 1 1:00 PM): 3
- Sedation Score Slight (number of dogs) ([1]; Day 1 1:00 PM): 6
- Sedation Score Moderate (number of dogs) ([1]; Day 1 4:00 PM): 0
- Sedation Score None (number of dogs) ([1]; Day 1 4:00 PM): 5
- Sedation Score Profound (number of dogs) ([1]; Day 1 4:00 PM): 0
- Sedation Score Slight (number of dogs) ([1]; Day 1 4:00 PM): 8
- Sedation Score Moderate (number of dogs) ([1]; Day 1 6:00 PM): 1
- Sedation Score None (number of dogs) ([1]; Day 1 6:00 PM): 4
- Sedation Score Profound (number of dogs) ([1]; Day 1 6:00 PM): 0
- Sedation Score Slight (number of dogs) ([1]; Day 1 6:00 PM): 8
- Sedation Score Moderate (number of dogs) ([1]; Day 1 8:00 PM): 0
- Sedation Score None (number of dogs) ([1]; Day 1 8:00 PM): 9
- Sedation Score Profound (number of dogs) ([1]; Day 1 8:00 PM): 0
- Sedation Score Slight (number of dogs) ([1]; Day 1 8:00 PM): 6
- Sedation Score Moderate (number of dogs) ([1]; Day 1 12:00 PM): 1
- Sedation Score None (number of dogs) ([1]; Day 1 12:00 PM): 2
- Sedation Score Profound (number of dogs) ([1]; Day 1 12:00 PM): 0
- Sedation Score Slight (number of dogs) ([1]; Day 1 12:00 PM): 10
- Sedation Score Moderate (number of dogs) ([1]; Day 2 5:00 PM): 0
- Sedation Score None (number of dogs) ([1]; Day 2 5:00 PM): 13
- Sedation Score Profound (number of dogs) ([1]; Day 2 5:00 PM): 0
- Sedation Score Slight (number of dogs) ([1]; Day 2 5:00 PM): 0
- Sedation Score Moderate (number of dogs) ([1]; Day 2 6:30 AM): 0
- Sedation Score None (number of dogs) ([1]; Day 2 6:30 AM): 13
- Sedation Score Profound (number of dogs) ([1]; Day 2 6:30 AM): 0
- Sedation Score Slight (number of dogs) ([1]; Day 2 6:30 AM): 0
- Sedation Score Moderate (number of dogs) ([1]; Day 3 7:00 AM): 0
- Sedation Score None (number of dogs) ([1]; Day 3 7:00 AM): 13
- Sedation Score Profound (number of dogs) ([1]; Day 3 7:00 AM): 0
- Sedation Score Slight (number of dogs) ([1]; Day 3 7:00 AM): 0
- Treatment Outcome: Failure (number of dogs, rescue analgesic needed) [2]: 0
- Treatment Outcome: Success (number of dogs, no rescue analgesic) [2]: 13
- Increase in methadone drug exposure when fluconazole is administered with methadone [3]: 30-35%
- Perioperative nausea or vomiting (dogs affected/dogs in group) [4]: 2/13
- Mean plasma concentration of methadone [5]: exceeded 10 ng/mL
- concentration at 0.333 h [6, 7]: 0.8 ng/mL
- concentration at 0.667 h [6, 7]: 1.3 ng/mL
- concentration at 1 h [6, 7]: 1.2 ng/mL
- concentration at 2 h ([6]; 1 mg/kg, Mean plasma methadone concentration, methadone alone 1 mg/kg PO, 2 hr, 6 dogs): 0.7 ng/mL
- concentration at 4 h [6, 7]: 0.4 ng/mL
- concentration at 0 h [6, 8]: < 0.5 ng/mL
- concentration at 1 h [6, 8]: 1 ng/mL
- concentration at 4 h [6, 8]: < 0.5 ng/mL
- concentration at 6 h ([6]; 1 mg/kg, Plasma methadone concentration, individual dogs, methadone alone 1 mg/kg PO, 6 hr, Dog 1-6): < 0.5 ng/mL
- concentration at 8 h ([6]; 1 mg/kg, Plasma methadone concentration, individual dogs, methadone alone 1 mg/kg PO, 8 hr, Dog 1-6): < 0.5 ng/mL
- concentration at 12 h ([6]; 1 mg/kg, Plasma methadone concentration, individual dogs, methadone alone 1 mg/kg PO, 12 hr, Dog 1-6): < 0.5 ng/mL
- concentration at 24 h ([6]; 1 mg/kg, Plasma methadone concentration, individual dogs, methadone alone 1 mg/kg PO, 24 hr, Dog 1-6): < 0.5 ng/mL
- concentration at 0 h [6, 9]: 0 ng/mL
- concentration at 0.333 h [6, 9]: 0.8 ng/mL
- concentration at 0.667 h [6, 9]: 5.2 ng/mL
- concentration at 1 h [6, 9]: 16 ng/mL
